Results reported in the NIST ThermoML archive (doi:10.1021/je034097r).
Numbers after ± are expanded uncertainties.

Details: Capillary rise

COC [dimethyl ether]
Details	surface tension liquid-gas [mN/m]
213.12 K	24.52 ± 0.31
223.11 K	22.95 ± 0.31
228.19 K	22.26 ± 0.31
233.31 K	21.44 ± 0.31
238.15 K	20.75 ± 0.3
243.12 K	19.81 ± 0.3
248.12 K	19.3 ± 0.3
253.09 K	18.54 ± 0.3
258.11 K	17.71 ± 0.3
263.12 K	16.99 ± 0.3
268.08 K	16.27 ± 0.3
273.08 K	15.43 ± 0.3
278.06 K	14.6 ± 0.3
283.07 K	13.97 ± 0.3
288.04 K	13.16 ± 0.3
293.09 K	12.66 ± 0.3
298.08 K	11.73 ± 0.3
303.2 K	11 ± 0.3
308.12 K	10.22 ± 0.3
313.12 K	9.557 ± 0.3
318.18 K	9.089 ± 0.3
323.18 K	8.428 ± 0.3
328.14 K	7.64 ± 0.3
333.14 K	7.045 ± 0.3
338.09 K	6.368 ± 0.3
343.13 K	5.717 ± 0.3
348.07 K	5.148 ± 0.3
353.11 K	4.435 ± 0.3
358.11 K	3.94 ± 0.3
363.1 K	3.315 ± 0.3
368.04 K	2.779 ± 0.3
